These results are taken from patent publication US20200190062A1, “HETEROCYCLIC COMPOUND AND PHARMACEUTICAL COMPOSITION COMPRISING SAME” (BEYONDBIO INC., priority 2015, published 2020).

Where a name gives a salt, the structure may show the parent alone.

What all share (test): Inhibition of cancer cell proliferation (MTT)
Holding throughout (format): cell-based, human

The test system of assay [1] is A549. The protocol:
(§1) A test was conducted to confirm whether the compounds obtained in the above Examples can inhibit proliferation of human colon carcinoma cell line HCT116, glioblastoma cell lines U-87MG and T98G, neuroblastoma cell lines SH-SYSY and SK-N-SH, and lung cancer cell lines A549 and NCI-H23.
(§2) HCT116, U-87MG, SH-SYSY, SK-N-SH and A549 cells were culured in DMEM medium containing 10% FBS. T98G cells were cultured in MEM medium containing 10% FBS and NCI-H23 cells were cultured in […] medium containing 10% FBS. In order to analyze an inhibition of proliferation, HCT116 cells were dispensed in 2000 cells/well into 96 well plate, and SH-SYSY, SK-N-SH, U-87MG, T98G, A549, and NCI-H23 cells were dispensed in 3000 cells/well into 96 well plate. And then, the cells were cultured at 5% CO2 and 37° C. for 16 hrs to allow the cells to attach to the wells. The compounds of the above Examples were added to each well at a concentration of 0.004, 0.013, 0.04, 0.12, 0.37, 1.1, 3.3, and 10 uM, and the culture volume was adjusted to 100 ul. A control group was treated with dimethylsulfoxide (DMSO) at the same concentration, 0.08%, as used to treat the test compounds. Afterwards, cells were cultured at 5% CO2 and 37° C. for 72 hrs. And then, 10 ul of the solution of MTT (3-(4,5-dimethylthiazol-2-yl)-2,5-diphenyltetrazolium bromide) dissolved in PBS at 5 mg/ml was added to each well to identify viable cells and the cells were cultured for further 2 hrs. The culture solution was removed, 100 ul of DMSO was added to dissolve the formed formazan and then an absorbance was measured at 535 nm. Based on the absorbance of the control cells not treated with the compounds, the amounts of the viable cells according to the concentration of the compounds were calculated. GI50 (growth inhibition 50) value which is the concentration of the compound to inhibit cancer cell proliferation by 50% was calculated using Graphpad Prism 5.0 program.

The subject of assay [2] is HCT116. The protocol:
as §1, §2

Assay [3] has as its system NCI-H23. The protocol: as §1, §2
For assay [4], the system named is T98G. The protocol: as §1, §2
The test system of assay [5] is U-87MG. The protocol: as §1, §2

Broadly, the GI50 is the concentration at which growth is held to half of that of the control. A lower GI50 goes with more potent growth inhibition.

With `CCN1CCC(c2cc(-c3nc(-c4ccnc(N)c4F)ccc3O)nc(N)n2)CC1` [Example 86, 2′-amino-6-(2-amino-6-(1-ethylpiperidin-4-yl)pyrimidin-4-yl)-3′-fluoro-[2,4′-bipyridin]-5-ol 4hydrochloride], the concentration for 50% growth inhibition (GI50) in assay [1] (72 hrs) came out at 20 nM; in assay [2] (72 hrs) it was 10 nM; in assay [3] (72 hrs), 50 nM; in assay [4] (72 hrs) it was 190 nM; in assay [5] (72 hrs), 30 nM.

In the case of `CCCN1CCCC(c2cc(-c3nc(-c4ccnc(N)c4F)ccc3O)nc(N)n2)C1` (centres unmarked) [Example 91, 2′-amino-6-(2-amino-6-(1-propylpiperidin-3-yl)pyrimidin-4-yl)-3′-fluoro-[2,4′-bipyridin]-5-ol 4hydrochloride], the GI50 in assay [1] (72 hrs) came to 30 nM; in assay [2] (72 hrs), 20 nM; in assay [3] (72 hrs) it was 50 nM; in assay [4] (72 hrs) it was 70 nM; in assay [5] (72 hrs) it was 30 nM.

In the case of `Nc1nc(-c2nc(-c3ccnc(N)c3F)ccc2O)cc(C2CCNCC2)n1` [Example 84, 2′-amino-6-(2-amino-6-(piperidin-4-yl)pyrimidin-4-yl)-3′-fluoro-[2,4′-bipyridin]-5-ol acetate], the GI50 in assay [1] (72 hrs) is 220 nM; in assay [2] (72 hrs) it was 60 nM; in assay [3] (72 hrs), 2030 nM; in assay [4] (72 hrs), 290 nM; in assay [5] (72 hrs) it was 180 nM.

As for `CN1CCCC(c2cc(-c3nc(-c4ccnc(N)c4F)ccc3O)nc(N)n2)C1` (centres unmarked) [Example 38, 2′-amino-6-(2-amino-6-(1-methylpiperidin-3-yl)pyrimidin-4-yl)-3′-fluoro-[2,4′-bipyridin]-5-ol], the GI50 in assay [1] (Homo sapiens, A549, 72 h) was 5 nM; in assay [2] (Homo sapiens, HCT-116, 72 h), 2 nM; in assay [3] (Homo sapiens, NCI-H23, 72 h), 20 nM; in assay [4] (Homo sapiens, T98G, 72 h), 20 nM; in assay [5] (Homo sapiens, U-87 MG, 72 h), 4 nM.

On to `CN1CCC(c2cc(-c3nc(-c4ccnc(N)c4F)ccc3O)nc(N)n2)CC1` [Example 77, 2′-amino-6-(2-amino-(6-(1-methylpiperidin-4-yl)pyrimidin-4-yl)-3′-fluoro-[2,4′-bipyridin]-5-ol 4hydrochloride], for which the GI50 in assay [1] (72 hrs) stood at 10 nM; in assay [2] (72 hrs) it was 3 nM; in assay [3] (72 hrs), 30 nM; in assay [4] (72 hrs), 30 nM; in assay [5] (72 hrs), 10 nM.

Turning to `CCN1CCC(c2cc(-c3nc(-c4ccnc(N)c4F)ccc3O)nc(N)n2)CC1` [Example 35, 2′-amino-6-(2-amino-6-(1-ethylpiperidin-4-yl)pyrimidin-4-yl)-3′-fluoro-[2,4′-bipyridin]-5-ol], the concentration for 50% growth inhibition (GI50) worked out at 20 nM in assay [1] (Homo sapiens, A549, 72 h); 10 nM in assay [2] (Homo sapiens, HCT-116, 72 h); 60 nM in assay [3] (Homo sapiens, NCI-H23, 72 h); 210 nM in assay [4] (Homo sapiens, T98G, 72 h); 30 nM in assay [5] (Homo sapiens, U-87 MG, 72 h).

Take `CCN1CCC(c2nc(N)nc(-c3nc(-c4ccnc(N)c4F)ccc3O)c2C)CC1` [Example 94, 2′-amino-6-(2-amino-6-(1-ethylpiperidin-4-yl)-5-methylpyrimidin-4-yl)-3′-fluoro-[2,4′-bipyridin]-5-ol 4hydrochloride]: the GI50 in assay [1] (72 hrs) is 230 nM; in assay [2] (72 hrs) it was 150 nM; in assay [3] (72 hrs), 520 nM; in assay [4] (72 hrs), 480 nM; in assay [5] (72 hrs) it was 320 nM.

Turning to `Cc1c(-c2nc(-c3ccnc(N)c3F)ccc2O)nc(N)nc1C1CCN(C)CC1` [Example 42, 2′-amino-6-(2-amino-5-methyl-6-(1-methylpiperidin-4-yl)pyrimidin-4-yl)-3′-fluoro-[2,4′-bipyridin]-5-ol], the GI50 in assay [1] (72 hrs) stood at 380 nM; in assay [2] (72 hrs), 180 nM; in assay [3] (72 hrs), 890 nM; in assay [4] (72 hrs) it was 400 nM; in assay [5] (72 hrs), 270 nM.

Turning to `CCCN1CCC(c2cc(-c3nc(-c4ccnc(N)c4F)ccc3O)nc(N)n2)CC1` [Example 87, 2′-amino-6-(2-amino-6-(1-propylpiperidin-4-yl)pyrimidin-4-yl)-3′-fluoro-[2,4′-bipyridin]-5-ol 4hydrochloride], the 50% growth inhibitory concentration (GI50) in assay [1] (72 hrs) stood at 10 nM; in assay [2] (72 hrs), 3 nM; in assay [3] (72 hrs), 40 nM; in assay [4] (72 hrs), 20 nM; in assay [5] (72 hrs), 10 nM.

Regarding `CC(C)N1CCC(c2cc(-c3nc(-c4ccnc(N)c4F)ccc3O)nc(N)n2)CC1` [Example 37, 2′-amino-6-(2-amino-6-(1-isopropylpiperidin-4-yl)pyrimidin-4-yl)-3′-fluoro-[2,4′-bipyridin]-5-ol], the GI50 in assay [1] (Homo sapiens, A549, 72 h) was determined as 20 nM; in assay [2] (72 hrs), 10 nM; in assay [3] (Homo sapiens, NCI-H23, 72 h) it was 60 nM; in assay [4] (Homo sapiens, T98G, 72 h), 30 nM; in assay [5] (Homo sapiens, U-87 MG, 72 h), 10 nM.

For the compound `Cc1nc(N)nc(-c2nc(-c3ccnc(N)c3F)ccc2O)c1C` [Example 101, 2′-amino-6-(2-amino-5,6-dimethylpyrimidin-4-yl)-3′-fluoro-[2,4′-bipyridin]-5-ol 3hydrochloride], the concentration for 50% growth inhibition (GI50) worked out at 120 nM in assay [1] (72 hrs); 60 nM in assay [2] (72 hrs); 230 nM in assay [3] (72 hrs); 290 nM in assay [4] (72 hrs); 230 nM in assay [5] (72 hrs).

Consider `CCCN1CCCC(c2nc(N)nc(-c3nc(-c4ccnc(N)c4F)ccc3O)c2C)C1` (centres unmarked) [Example 47, 2′-amino-6-(2-amino-5-methyl-6-(1-propylpiperidin-3-yl)pyrimidin-4-yl)-3′-fluoro-[2,4′-bipyridin]-5-ol], for which the concentration for 50% growth inhibition (GI50) in assay [1] (Homo sapiens, A549, 72 h) came out at 1440 nM; in assay [2] (Homo sapiens, HCT-116, 72 h), 810 nM; in assay [3] (Homo sapiens, NCI-H23, 72 h) it was 2230 nM; in assay [4] (Homo sapiens, T98G, 72 h), 1410 nM; in assay [5] (Homo sapiens, U-87 MG, 72 h), 1090 nM.

For the compound `Cc1nc(N)nc(-c2nc(-c3ccnc(N)c3F)ccc2O)c1C` [Example 60, 2′-amino-6-(2-amino-5,6-dimethylpyrimidin-4-yl)-3′-fluoro-[2,4′-bipyridin]-5-ol], the concentration for 50% growth inhibition (GI50) in assay [1] (Homo sapiens, A549, 72 h) came to 120 nM; in assay [2] (Homo sapiens, HCT-116, 72 h), 50 nM; in assay [3] (Homo sapiens, NCI-H23, 72 h), 220 nM; in assay [4] (Homo sapiens, T98G, 72 h), 260 nM; in assay [5] (Homo sapiens, U-87 MG, 72 h), 220 nM.

In the case of `CCN1CCC(c2nc(N)nc(-c3nc(-c4ccnc(N)c4F)ccc3O)c2C)CC1` [Example 43, 2′-amino-6-(2-amino-6-(1-ethylpiperidin-4-yl)-5-methylpyrimidin-4-yl)-3′-fluoro-[2,4′-bipyridin]-5-ol], the GI50 in assay [1] (Homo sapiens, A549, 72 h) stood at 460 nM; in assay [2] (Homo sapiens, HCT-116, 72 h) it was 230 nM; in assay [3] (Homo sapiens, NCI-H23, 72 h), 960 nM; in assay [4] (Homo sapiens, T98G, 72 h), 460 nM; in assay [5] (Homo sapiens, U-87 MG, 72 h), 280 nM.

Regarding `CCCN1CCC(c2nc(N)nc(-c3nc(-c4ccnc(N)c4F)ccc3O)c2C)CC1` [Example 44, 2′-amino-6-(2-amino-5-methyl-6-(1-propylpiperidin-4-yl)pyrimidin-4-yl)-3′-fluoro-[2,4′-bipyridin]-5-ol], the concentration for 50% growth inhibition (GI50) in assay [1] (Homo sapiens, A549, 72 h) was 140 nM; in assay [2] (Homo sapiens, HCT-116, 72 h) it was 60 nM; in assay [3] (72 hrs), 330 nM; in assay [4] (Homo sapiens, T98G, 72 h) it was 130 nM; in assay [5] (Homo sapiens, U-87 MG, 72 h) it was 90 nM.

On to `CC(C)N1CCCC(c2cc(-c3nc(-c4ccnc(N)c4F)ccc3O)nc(N)n2)C1` (centres unmarked) [Example 92, 2′-amino-6-(2-amino-6-(1-isopropylpiperidin-3-yl)pyrimidin-4-yl)-3′-fluoro[2,4′-bipyridin]-5-ol 4hydrochloride], for which the GI50 in assay [1] (72 hrs) was determined as 30 nM; in assay [2] (72 hrs), 20 nM; in assay [3] (72 hrs) it was 50 nM; in assay [4] (72 hrs), 90 nM; in assay [5] (72 hrs), 30 nM.

`CCc1cnc(N)nc1-c1nc(-c2ccnc(N)c2F)ccc1O` [Example 56, 2′-amino-6-(2-amino-5-ethylpyrimidin-4-yl)-3′-fluoro-[2,4′-bipyridin]-5-ol]: the GI50 in assay [1] (Homo sapiens, A549, 72 h) worked out at 80 nM; in assay [2] (72 hrs), 30 nM; in assay [3] (72 hrs), 90 nM; in assay [4] (72 hrs), 130 nM; in assay [5] (Homo sapiens, U-87 MG, 72 h), 60 nM.

For the compound `CCCN1CCCC(c2cc(-c3nc(-c4ccnc(N)c4F)ccc3O)nc(N)n2)C1` (centres unmarked) [Example 40, 2′-amino-6-(2-amino-6-(1-propylpiperidin-3-yl)pyrimidin-4-yl)-3′-fluoro-[2,4′-bipyridin]-5-ol], the GI50 in assay [1] (72 hrs) was 10 nM; in assay [2] (Homo sapiens, HCT-116, 72 h), 10 nM; in assay [3] (Homo sapiens, NCI-H23, 72 h), 30 nM; in assay [4] (Homo sapiens, T98G, 72 h) it was 50 nM; in assay [5] (Homo sapiens, U-87 MG, 72 h), 20 nM.

In the case of `Nc1nc(-c2nc(-c3ccnc(N)c3F)ccc2O)cc(C2CCNCC2)n1` [Example 83, 2′-amino-6-(2-amino-6-(piperidin-4-yl)pyrimidin-4-yl)-3′-fluoro-[2,4′-bipyridin]-5-ol 4hydrochloride], the GI50 amounted to 120 nM in assay [1] (72 hrs); 30 nM in assay [2] (72 hrs); 1180 nM in assay [3] (72 hrs); 150 nM in assay [4] (72 hrs); 90 nM in assay [5] (72 hrs).
